PubChem BioAssay AID2060490 (Molecular Pharmacology Branch, DTP, NCI, 2025)

Test system: 885512-296-R-J2-PDC complex spheroid viability
Experiment: Anticancer human tumor 885512-296-R-J2-PDC patient-derived breast carcinoma cell line growth inhibition [GQUAD]
Settings: for IC50: curve of first compound; for viability, T/C: stronger effect = lower value
Source text: DNA G-quadruplex Stabilizer Agents in Combinations in Complex Spheroids
A high-throughput screen of multi-cell type tumor spheroids was designed to identify active combinations of DNA G-quadruplex stabilizer agents and targeted small molecules. Complex spheroids include a stromal component modeled by human endothelial cells (HUVEC) and fibroblasts modeled by human mesenchymal stem cells (MSCs). The concentration ranges selected for each drug and investigational agent were based upon clinically achievable concentrations if the clinical Cmax of the agent was known.
Compounds. The drugs and investigational agents: pidnarulex (CX-5461; NSC782164), APTO-253 (NSC789042), BRACO-19 (NSC847499), peposertib (NSC802822), ceralasertib (NSC780249), elimusertib (NSC800525), camonsertib (NSC841442), AZD-1390 (NSC803789), olaparib (NSC753686), talazoparib (NSC767125), ART-558 (NSC835418), sotorasib (NSC818433), MRTX-1133 (NSC836407), SN-38 (NSC673596), topotecan (NSC609699), etoposide (NSC141540), doxorubicin (NSC123127), gemcitabine (NSC613327), 5-fluorouracil (NSC19893), paclitaxel (NSC125973), vemurafenib (NSC761431), panobinostat (NSC761190), R-306465 (JNJ-16241199; NSC773264), adavosertib (NSC754352), TP-3654 (NSC805149), carboplatin (NSC241240), KSQ-4279 (NSC840948), and staurosporine (NSC755774) were obtained from the National Cancer Institute (NCI) Developmental Therapeutics Program Chemical Repository (34). The FDA-approved anticancer drug set is available from the NCI Developmental Therapeutics Program. […] The stock solutions were prepared in dimethyl sulfoxide (DMSO, Sigma-Aldrich, St. Louis, MO, cat. D2650) at 800-fold the tested concentration and stored at -70 degrees C prior to their use. All drugs and investigational agents were tested over a range starting from a high concentration at or near the clinical Cmax and decreasing in half-log increments. If the clinical Cmax for an agent had not been determined, the highest concentration tested was 10 microM.
2.3 Cell Culture. All cells were maintained in an incubator at 37 degrees C and 5% CO2 with 95% humidity. The PDC lines were cultured according to standard operating procedures established by the NCI PDMR. All PDCs were thawed and cultured in Matrigel-coated flasks prepared with a working solution of 1X Ham's F-12 nutrient mix, without supplementation (Invitrogen, cat. 11765054), 100 U/mL penicillin-streptomycin (Invitrogen, cat. 15140122), and 2.5% Matrigel (Corning Inc., cat. 354248) for the first three passages. The 857933-349-R-J2-PDC line was cultured in 6C/Colon 1B media, which includes advanced DMEM/F-12 (Thermo Fisher Scientific, cat. 12634028), 10 mM HEPES (Thermo Fisher Scientific, cat. 15630080), 1X GlutaMAX supplement (Thermo Fisher Scientific, cat. 35050061), 0.1 mg/mL primocin (InvivoGen, cat. ant-pm-2), 10% defined fetal bovine serum, heat inactivated (HyClone Laboratories Inc., cat. SH30070.03HI), 50% L-WRN conditioned media (ATCC, cat. CRL-3276), 1.25 mM N-Acetyl-L-cysteine (Sigma-Aldrich, cat. A9165), 10 mM nicotinamide (Sigma-Aldrich, cat. N0636), 1X B-27 supplement (Thermo Fisher Scientific, cat. 17504044), 1X N-2 supplement (Thermo Fisher Scientific, cat. 17502048), 10 microM Y-27632 dihydrochloride (Tocris Bioscience, cat. 1254), and 50 ng/mL human EGF recombinant protein (Thermo Fisher Scientific, cat. PHG0311). The 485176-168-R4-J1-PDC line was cultured in Panc media, which includes all 6C/Colon 1B media components plus 100 ng/mL human FGF-10 (Thermo Fisher Scientific, cat. 100-26), 500 nM SB-431542 (Selleckchem, cat. S1067), and gastrin (Tocris, cat. 3006).
[…]
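Note: spheroids exposed to the compounds for one week.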
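Throughout, for viability, T/C: percent of tumor spheroid viability relative to DMSO vehicle control wells.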

Structure (SMILES): O=C(NO)c1cnc(N2CCN(S(=O)(=O)c3ccc4ccccc4c3)CC2)nc1 + Cc1[nH]c2ccc(F)cc2c1-c1nc2c3cccnc3c3ncccc3c2[nH]1
- IC50 (second compound 0.0316 µM): < 31.6 nM
- IC50 (second compound 0.1 µM): < 31.6 nM
- IC50 (second compound 0.316 µM): < 31.6 nM
- IC50 (second compound 1 µM): < 31.6 nM
- IC50 (second compound 3.16 µM): < 31.6 nM
- IC50 (second compound 10 µM): < 31.6 nM
- viability, T/C (second compound 0.0316 µM, first compound 0.0316 µM): 7.49%
- viability, T/C (second compound 0.0316 µM, first compound 0.1 µM): 2.85%
- viability, T/C (second compound 0.0316 µM, first compound 0.316 µM): 3.25%
- viability, T/C (second compound 0.0316 µM, first compound 1 µM): 3.35%
- viability, T/C (second compound 0.0316 µM, first compound 3.16 µM): 2.95%
- viability, T/C (second compound 0.0316 µM, first compound 10 µM): 3.28%
- viability, T/C (second compound 0.1 µM, first compound 0.0316 µM): 6.66%
- viability, T/C (second compound 0.1 µM, first compound 0.1 µM): 3.49%
- viability, T/C (second compound 0.1 µM, first compound 0.316 µM): 2.89%
- viability, T/C (second compound 0.1 µM, first compound 1 µM): 3.93%
- viability, T/C (second compound 0.1 µM, first compound 3.16 µM): 2.97%
- viability, T/C (second compound 0.1 µM, first compound 10 µM): 4.1%
- viability, T/C (second compound 0.316 µM, first compound 0.0316 µM): 7.12%
- viability, T/C (second compound 0.316 µM, first compound 0.1 µM): 4.32%
- viability, T/C (second compound 0.316 µM, first compound 0.316 µM): 3.29%
- viability, T/C (second compound 0.316 µM, first compound 1 µM): 3.62%
- viability, T/C (second compound 0.316 µM, first compound 3.16 µM): 3.66%
- viability, T/C (second compound 0.316 µM, first compound 10 µM): 4.67%
- viability, T/C (second compound 1 µM, first compound 0.0316 µM): 6.46%
- viability, T/C (second compound 1 µM, first compound 0.1 µM): 4.49%
- viability, T/C (second compound 1 µM, first compound 0.316 µM): 3.76%
- viability, T/C (second compound 1 µM, first compound 1 µM): 5.02%
- viability, T/C (second compound 1 µM, first compound 3.16 µM): 5.46%
- viability, T/C (second compound 1 µM, first compound 10 µM): 3.77%
- viability, T/C (second compound 3.16 µM, first compound 0.0316 µM): 2.35%
- viability, T/C (second compound 3.16 µM, first compound 0.1 µM): 2.1%
- viability, T/C (second compound 3.16 µM, first compound 0.316 µM): 2.47%
- viability, T/C (second compound 3.16 µM, first compound 1 µM): 2.68%
- viability, T/C (second compound 3.16 µM, first compound 3.16 µM): 1.7%
- viability, T/C (second compound 3.16 µM, first compound 10 µM): 2.56%
- viability, T/C (second compound 10 µM, first compound 0.0316 µM): 1.59%
- viability, T/C (second compound 10 µM, first compound 0.1 µM): 2.99%
- viability, T/C (second compound 10 µM, first compound 0.316 µM): 1.66%
- viability, T/C (second compound 10 µM, first compound 1 µM): 1.46%
- viability, T/C (second compound 10 µM, first compound 3.16 µM): 1.54%
- viability, T/C (second compound 10 µM, first compound 10 µM): 2.58%
